According to patent publication US20130040882A1, “USE OF FIBROBLAST GROWTH FACTOR FRAGMENTS” (NOVARTIS AG, priority 2003, published 2013):
Where two headings read alike, the source gives them in different places.

Test system: transcript levels in tissues (GH/IGF and glucagon/insulin axes, SSTR signalling)
Type: in vivo, cynomolgus monkeys
[1] = RNA expression fold change, brown fat
[2] = RNA expression fold change, pancreas
[3] = RNA expression fold change, pituitary

Substance: cyclo[4-(NH2—C2H4—NH—CO—O)Pro-Phg-DTrp-Lys-Tyr(4-Bzl)-Phe] [SOM230]
- Gene expression (AvgDiff): IGF-1 (BROWN FAT): 389
- Gene expression (AvgDiff): IGFBP 4 (BROWN FAT): 763
- Gene expression (AvgDiff): IRS 2 (BROWN FAT): 146
- Gene expression (AvgDiff): SSTR3 (BROWN FAT): 194
- Gene expression (AvgDiff): IGF-1 (PANCREAS): 89
- Gene expression (AvgDiff): SSTR2 (PANCREAS): 156
- Gene expression (AvgDiff): GR (PITUITARY): 109
- Gene expression (AvgDiff): IGF-2 (PITUITARY): 70
- Gene expression (AvgDiff): IGFBP, acid labile subunit (PITUITARY): 83
- Gene expression (AvgDiff): SSTR3 (PITUITARY): 57
- Actin related protein 2/3 complex, subunit 1A (41 kD) ↓ [1]: (41 kD) ↓ x2.5
- Adrenergic, β-3-, receptor ↑ [1]: receptor ↑ x2.5
- Apotosis-associated tyrosine kinase ↑ [1]: tyrosine kinase ↑ x3.5
- CD2 antigen (cytoplasmic tail)-binding protein 2 ↑ [1]: protein 2 ↑ x2.5
- CSF 1 (macrophage) ↓ [1]: ↓ x2
- CSF 3 receptor (granulocyte) ↑ [1]: (granulocyte) ↑ x3
- Ca++ channel, voltage dependent, α 1H subunit ↑ [1]: ↑ x3
- Cadherin 5, VE-cadherin (vascular epithelium) ↑ [1]: (vascular epithelium) ↑ x3
- Cadherin 13, H-cadherin (heart) ↓ [1]: (heart) ↓ x2
- Cadherin F1B1 ↓ [1]: Cadherin F1B1 ↓ x4
- Calcium/calmodulin-dependent protein kinase I ↓ [1]: kinase I ↓ x3.5
- Capping protein (actin filament), gelsolin-like ↓ [1]: ↓ x2.5
- Coagulation factor XIIIAI subunit precursor ↓ [1]: ↓ x5
- Cyclin T2 ↑ [1]: Cyclin T2 ↑ x2.5
- Dopamine receptor D3 ↑ [1]: x2.5
- Dual specificity PP MKP-5 ↑ [1]: MKP-5 ↑ x2.5
- EGF receptor pathway substrate 15 ↓ [1]: substrate 15 ↓ x2
- Endothelial cell GF 1 (platelet derived) ↓ [1]: (platelet derived) ↓ x2
- Endothelial differentiation, sphingolipid G-protein-coupled receptor, 5 ↑ [1]: coupled receptor, 5 ↑ x2.5
- FSHR ↑ [1]: FSHR ↑ x2.5
- Fms-related tyrosine kinase 1 (VEGF/vascular permeability factor receptor) ↓ [1]: receptor) ↓ x4.5
- Follistatin-like 3 glycoprotein ↑ [1]: glycoprotein ↑ x3
- G1 to S phase transition ↓ [1]: ↓ x1.5
- G protein-activated inwardly rectifying K+ channel ↑ [1]: channel ↑ x3.5
- G protein-coupled receptor 1 ↓ [1]: receptor 1 ↓ x2.5
- G α inhibiting activity polypeptide 3 interacting protein ↓ [1]: protein ↓ x5
- GLUR, metabotropic 1 ↑ [1]: ↑ x2
- Guanine nucleotide binding protein (G protein), β polypeptide 3 ↑ [1]: ↑ x2.5
- IFN induced transmembrane protein 1 ↑ [1]: ↑ x2.5
- IFN γ-inducible protein 30 (IP30) ↓ [1]: 30 (IP30) ↓ x3.5
- IGF-1 ↓ [1]: IGF-1 ↓ x1.5
- IGF-binding protein 4 ↓ [1]: ↓ x2
- IL 3 (CSF, multiple) ↑ [1]: ↑ x2
- IL 5R, α ↑ [1]: IL 5R, α↑ x2.5
- IL 7R precursor ↑ [1]: IL 7R precursor ↑ x2
- IRS (insulin receptor substrate) 2 ↑ [1]: substrate) 2 ↑ x2.5
- Neuroblastoma apoptosis-related RNA bindingprotein ↓ [1]: bindingprotein ↓ x3
- Neuroblastoma ↓ [1]: Neuroblastoma ↓ x2.5
- Oxytocin, prepro-(neurophysin I) ↑ [1]: (neurophysin I) ↑ x2.5
- PCNA ↓ [1]: PCNA ↓ x2.5
- PI glycan, class F ↓ [1]: PI glycan, class F ↓ x2
- PI glycan, class L ↑ [1]: PI glycan, class L ↑ x3.5
- PI-3-kinase. regulatory subunit, polypeptide 2 (p85 β) ↓ [1]: (p85 β) ↓ x3.5
- PLC β4 ↑ [1]: PLC β4 ↑ x2
- PP 2, regulatory subunit B (B56), γ isoform ↓ [1]: B (B56), γ isoform ↓ x1.5
- PP 5, catalytic subunit ↑ [1]: ↑ x2.5
- Pentaxin-related gene, rapidly induced by IL-1 ↓ [1]: ↓ x7.5
- T3 receptor ↑ [1]: T3 receptor ↑ x2
- TGF β3 ↑ [1]: TGF β3 ↑ x2.5
- TGF β-activated kinase-binding protein 1 ↑ [1]: binding protein 1 ↑ x2.5
- THR interactor 10 ↓ [1]: THR interactor 10 ↓ x3
- THR interactor 12 ↓ [1]: ↓ x1.5
- TNF type 1 receptor associated protein ↓ [1]: associated protein ↓ x2
- VGF nerve growth factor inducible ↑ [1]: factor inducible ↑ x2
- BCL2/adenovirus E1B 19 kD-intracting protein 1, isoform BNIP1-a ↓ [2]: BNIP1-a ↓ x1.5
- CRHR 1 ↓ [2]: CRHR 1 ↓ x2
- Ca++ channel, voltage dependent, α 1F subunit ↓ [2]: ↓ x4.5
- Cdki 1C ↑ [2]: Cdki 1C ↑ x2
- Chymotrypsin-like ↑ [2]: ↑ x3.5
- Cyclin D1 ↑ [2]: Cyclin D1 ↑ x2
- Cyclin T2 ↓ [2]: Cyclin T2 ↓ x2
- G-CSF protein ↓ [2]: G-CSF protein ↓ x2
- GLUR precursor, flip isoform ↑ [2]: flip isoform ↑ x3
- Gastrin-releasing peptide receptor ↓ [2]: peptide receptor ↓ x5
- IFN regulatory factor 3 ↑ [2]: factor 3 ↑ x5
- IGF-1 ↑ [2]: IGF-1 ↑ x4.5
- IL 1 receptor antagonist ↓ [2]: antagonist↓ x2
- IP-1-phosphatase ↑ [2]: ↑ x2.5
- Integrin α2b precursor ↑ [2]: precursor ↑ x1.5
- K+ voltage-gated channel, KQT-like subfamily, member3 ↓ [2]: ↓ x2.5
- Na+ channel, voltage-gated, type I, β polypeptide ↑ [2]: β polypeptide ↑ x2
- Neuroblastoma apoptosis-related RNA bindingprotein ↓ [2]: ↓ x3
- PDGFR α ↑ [2]: PDGFR α ↑ x2.5
- PDGFR, α polypeptide ↑ [2]: α polypeptide ↑ x1.5
- PI-4-kinase, catalytic, α polypeptide ↑ [2]: α polypeptide ↑ x1.5
- PL A2, group IVC (cytosolic, calcium-independent) ↑ [2]: independent) ↑ x1.5
- Phosphotyrosine independent ligand p62B for the Lck SH2 domain B-cell isoform ↓ [2]: isoform ↓ x2
- Prostacyclin synthase ↑ [2]: ↑ x2
- SSTR2 ↓ [2]: SSTR2 ↓ x1.5
- Smad 3 ↓ [2]: Smad 3 ↓ x1.5
- THR binding protein ↓ [2]: ↓ x2
- THR interactor 10 ↑ [2]: ↑ x2.5
- Thrombospondin 2 ↑ [2]: ↑ x3.5
- 1-PI-4-phosphate 5-kinase isoform C ↓ [3]: kinase isoform C ↓ x1.5
- ANP (atrial natriuretic peptide precursor B) ↑ [3]: peptide precursor B) ↑ x2
- ATP(GTP)-binding protein ↑ [3]: protein ↑ x1.5
- ATPase, Ca++ transporting cardiac muscle, slow twitch 2 ↑ [3]: ↑ x1.5
- ATPase, H+/K+ exchanging, α polypeptide ↓ [3]: ↓ x5
- ATPase, Na+/K+ transporting, α2(+) polypeptide ↑ [3]: polypeptide ↑ x2.5
- ATPase, Na+/K+ transporting, β3 polypeptide ↑ [3]: polypeptide ↑ x2.5
- Adrenomedullin ↑ [3]: Adrenomedullin ↑ x2.5
- Arg PTK-binding protein ↓ [3]: protein ↓ x2.5
- BCL2-antagonist of cell death ↑ [3]: death ↑ x2
- BCL2-associated athanogene ↑ [3]: athanogene ↑ x2
- BCL2/adenovirus E1B 19 kD-interacting protein 3 ↑ [3]: ↑ x1.5
- Bax γ ↑ [3]: Bax γ ↑ x1.5
- Brain cannabinoid receptor 1 ↑ [3]: receptor 1 ↑ x2
- Butyrate response factor 2 (EGF-response factor 2) ↑ [3]: ↑ x3
- CC chemokines STCP-1 ↑ [3]: ↑ x1.5
- CD36 antigen ↓ [3]: CD36 antigen ↓ x2
- Calcium/calmodulin-dependent protein kinase I ↑ [3]: kinase I ↑ x2.5
- Catenin (cadherin-associated protein), α1 (102 kD) ↓ [3]: α1 (102 kD) ↓ x1.5
- Cdki2C (p18, inhibits CDK4) ↑ [3]: CDK4) ↑ x2
- Cdki2D (p19, inhibits CDK4) ↑ [3]: CDK4) ↑ x1.5
- Cell division cycle 25B ↑ [3]: ↑ x5
- Cholecystokinin receptor ↓ [3]: receptor ↓ x4.5
- Cholinergic receptor, muscarinic 3 ↓ [3]: muscarinic 3 ↓ x3
- Cholinergic receptor, nicotinic, β polypeptide 4 ↓ [3]: β polypeptide 4 ↓ x2
